ChEMBL document CHEMBL5126628, “Aspersterols A-D, Ergostane-Type Sterols with an Unusual Unsaturated Side Chain from the Deep-Sea-Derived Fungus Aspergillus unguis” (J Nat Prod, 2022)
Counter-ions that a name gives are not always drawn.

How the values were obtained:
ACHN = test: Growth inhibition of human ACHN cells by SRB assay; format: functional
MDA-MB-231 = test: Growth inhibition of human MDA-MB-231 cells by SRB assay; format: functional
PC-3 = test: Growth inhibition of human PC-3 cells by SRB assay; format: functional
NUGC-3 = test: Growth inhibition of human NUGC-3 cells by SRB assay; format: functional
HCT-15 = test: Growth inhibition of human HCT-15 cells by SRB assay; format: functional
NCI-H23 = test: Growth inhibition of human NCI-H23 cells by SRB assay; format: functional
RAW264.7 [1] = test: Antiinflammatory activity in mouse RAW264.7 cells assessed as reduction in LPS-induced iNOS mRNA expression […]; format: functional, cell-based; conditions: DDE = dose-dependent effect
RAW264.7 [2] = test: Antiinflammatory activity in mouse RAW264.7 cells assessed as reduction in LPS-induced IL6 mRNA expression […]; format: functional, cell-based; conditions: DDE = dose-dependent effect
RAW264.7 [3] = test: Antiinflammatory activity in mouse RAW264.7 cells assessed as reduction in LPS-induced nitrite production by griess assay; format: functional, cell-based; conditions: DDE = dose-dependent effect
RAW264.7 [4] = test: Antiinflammatory activity in mouse RAW264.7 cells assessed as reduction in LPS-induced IL6 production […]; format: functional, cell-based; conditions: DDE = dose-dependent effect
RAW264.7 [5] = test: Antiinflammatory activity in mouse RAW264.7 cells assessed as reduction in LPS-induced nitric oxide production by griess assay; format: functional, cell-based

SMILES	GI50 (ACHN) [µM]	GI50 (MDA-MB-231) [µM]	GI50 (PC-3) [µM]	GI50 (HCT-15) [µM]	GI50 (NCI-H23) [µM]	IC50 (RAW264.7 [5]) [µM]	GI50 (NUGC-3) [µM]	inhibition (RAW264.7 [1])	inhibition (RAW264.7 [2])	inhibition (RAW264.7 [3])	inhibition (RAW264.7 [4])
CC(/C=C/[C@H](C)C(C)C)=C1\[C@H](O)C[C@H]2C3=CC(=O)[C@@]4(O)C[C@@H](O)CC[C@]4(C)[C@H]3CC[C@]12C	> 30	> 30	> 30	> 30	> 30	14.5	> 30				
CC(/C=C/[C@H](C)C(C)C)=C1\CC[C@H]2C3=CC(=O)[C@@]4(O)C[C@@H](O)CC[C@]4(C)[C@@]3(O)CC[C@]12C	> 30	> 30	> 30	> 30	> 30	19.5	> 30				

These reach a lower GI50 (ACHN). Values come first.

GI50 (ACHN) [µM]	GI50 (MDA-MB-231) [µM]	GI50 (PC-3) [µM]	GI50 (HCT-15) [µM]	GI50 (NCI-H23) [µM]	IC50 (RAW264.7 [5]) [µM]	SMILES	GI50 (NUGC-3) [µM]	inhibition (RAW264.7 [1])	inhibition (RAW264.7 [2])	inhibition (RAW264.7 [3])	inhibition (RAW264.7 [4])
4.3	3.4	3.9	4.5	4.4		CC(/C=C/[C@H](C)C(C)C)=C1\[C@H](O)C[C@H]2c3cc4c(c(C)c3CC[C@]12C)CC[C@H](O)C4	4.2				
12.5	13.5	13.8	13.2	10.3	11.6	CC(/C=C/[C@H](C)C(C)C)=C1\CC[C@H]2C3=CC(=O)[C@@]4(O)C[C@@H](O)CC[C@]4(C)[C@H]3CC[C@]12C	11.5	Dde	Dde	Dde	Dde
0.07	0.08	0.09	0.09	0.08		COc1cccc2c1C(=O)c1c(O)c3c(c(O)c1C2=O)C[C@@](O)(C(=O)CO)C[C@@H]3O[C@H]1C[C@H](N)[C@H](O)[C@H](C)O1 [DOXORUBICIN HYDROCHLORIDE]	0.08				
